Test results as given in PubChem BioAssay (NCI).
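Results reflect a 48-hour exposure of cells in 96-well plates to compound at five concentrations. TGI marks complete inhibition of growth.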

Tests used:
Assay in all cases: NCI-60 cell line screen, 48 h
[1] = tested on: SNB-19 CNS
[2] = tested on: KM12 colon
[3] = tested on: 786-0 renal
[4] = tested on: SF-295 CNS
[5] = tested on: RXF 393 renal
[6] = tested on: SK-MEL-5 melanoma
[7] = tested on: IGROV1 ovarian
[8] = tested on: SF-539 CNS
[9] = tested on: OVCAR-8 ovarian
[10] = tested on: MDA-N
[11] = tested on: OVCAR-3 ovarian
[12] = tested on: UACC-62 melanoma
[13] = tested on: DU-145 prostate

SMILES | TGI [1] [µM] | TGI [2] [µM] | TGI [3] [µM] | TGI [4] [µM] | TGI [5] [µM] | TGI [6] [µM] | TGI [7] [µM] | TGI [8] [µM] | TGI [9] [µM] | TGI [10] [µM] | TGI [11] [µM] | TGI [12] [µM] | TGI [13] [µM]
C[N+](C)(C)CC(=O)N/N=C/c1ccncc1 | > 100 | > 100 | > 100 | > 100 | > 100 | > 100 | > 100 | > 100 | > 100 | > 100 | > 100 | > 100 | > 100
C/C(=N\Nc1nc2cccnc2s1)c1ccccn1 | > 87 | > 33.6 | > 100 | 3.48 | 19.9 | 9.02 | 1.3 | 20.6 | 0.0147 | > 100 |  |  | > 100
CC(C)Cc1cc2c(cc1O)CCC1C2CC[C@@]2(C)C1CC[C@@H]2O (stereo partly specified) | 21.1 | 17.4 | 23.6 | 20.2 | 16.3 | 20.3 | 33.1 | 40.6 | 22.3 | 19.7 | 16.6 | 21.2 | 23.1
CC1CCC2(CC1)NC1=C(CC(C)CC1)C1=C2CC(C)CC1 (stereo unspecified) | 78.2 | 40.2 | 39.1 | 36.9 | 30.7 | 24.4 | > 100 | 40.6 | 65.6 | > 100 | 37.4 |  | > 100
COC1OC(COC(=O)c2cc(O)c(O)c(O)c2)C(OC(=O)c2cc(O)c(O)c(O)c2)C(OC(=O)c2cc(O)c(O)c(O)c2)C1OC(=O)c1cc(O)c(O)c(O)c1 (stereo unspecified) | > 100 | > 100 | 26.4 | > 100 | > 100 | > 100 | > 100 | 37.1 | > 100 | 87.6 | 77.7 | > 100 | > 100
C[C@@H](NC(=O)c1ccc(CNC(=O)/C=C/c2cccc(Oc3ccccc3)c2)cc1)c1ccccc1 | > 52.2 | > 100 | 35.4 | > 100 | 12.2 | > 100 | > 100 | 30.6 | > 100 | > 100 | > 100 | > 100 | > 100
O=C(O)c1ccc(C2SCc3nc4ccccc4n32)cc1 (stereo unspecified) | > 100 | > 100 | > 100 | > 100 | > 100 | > 100 | > 100 | > 100 | > 100 | > 100 | > 100 |  | > 100
Cc1ccc2nc(C=Nc3ccc(Cl)cc3)cc(C)c2c1 | > 100 | 24.7 | 35.3 | 19.3 | 62.3 | 25.2 | 31.3 | 12.8 | 23.3 | 25.2 | 32.2 | 40 | > 100
CN1CN(c2ccccc2)C2(CCN(CCC3COc4ccccc4O3)CC2)C1=O (stereo unspecified) | 70.8 | 66.7 | > 100 | 37.2 | > 100 | 28.2 | 75.2 | 38 | > 100 | 53.1 | 48.7 | 91.6 | > 100
c1ccc2c(c1)CCc1[nH]c3c(c1-2)-c1ccccc1CC3 | > 100 | > 100 | > 100 | > 100 | > 100 | > 100 | > 100 | > 100 | > 100 | > 100 | > 100 | > 100 | > 100
O=c1c2cc(Cl)cc(Cl)c2oc2nc3n(c(=O)c12)CCCS3 | > 100 | > 100 | > 100 | > 100 | > 100 | > 100 | > 100 | > 100 |  | > 100 | > 100 | > 100 | > 100
CC(C)(C)c1cc2c(O)c(c1)Cc1cc(C(C)(C)C)cc(c1O)Cc1cc(C(C)(C)C)cc(c1O)Cc1cc(C(C)(C)C)cc(c1O)Cc1cc(C(C)(C)C)cc(c1O)Cc1cc(C(C)(C)C)cc(c1O)Cc1cc(C(C)(C)C)cc(c1O)Cc1cc(C(C)(C)C)cc(c1O)C2 | > 50 | > 50 | > 50 | > 50 | > 50 | > 50 | > 50 | > 50 | > 50 | > 50 | > 50 | > 50 | > 50
COC(=O)C1=C(C(=O)OC)SC2(S1)C(C(=O)OC)=C(C(=O)OC)Sc1c2ssc1=Nc1ccc(Cl)cc1 | 2.95 | 2.11 | 1.69 | 5.34 | 0.894 | 2.96 | 2.48 | 1.68 | 3.25 | 1.69 | 2.71 | 2.42 | 1.65
O=c1[nH]c(=O)n(C2OC(CO)C(O)C2O)cc1Oc1ccccc1 (stereo unspecified) | > 100 | > 100 | > 100 | > 100 | > 100 | > 100 | > 100 | > 100 | > 100 | > 100 | > 100 | > 100 | > 100
O=C(CCCl)NNC1=NCCCN1 | > 100 | > 100 | > 100 | > 100 | > 100 | > 100 | > 100 | > 100 | > 100 | > 100 | > 100 | > 100 | > 100
COc1ccc2nc3ccc(OC)cc3c(SCc3ccccc3)c2c1 | > 100 | > 100 | > 100 | > 100 | > 100 | > 100 | > 100 | > 100 | > 100 | > 26.3 | > 100 | > 100 | > 100
COC(=O)/C=C/C1(O)C=CC(=O)C=C1 | 18.1 | 5.61 | 5.36 | 38.3 | > 25.1 | 17.6 | 7.74 | 4.45 | > 100 | 4.5 | 4.93 | 7.43 | 9.57
